In US6780871B2, “Methods and compositions for treating addiction disorders” (Albany Medical College, priority 2001, dated 2004):

Experiments:
α3β4 nACh receptors [1] = molecular target: T1, α3β4 nACh receptors (Rattus norvegicus, UniProt P04757+P12392); assay: whole-cell patch-clamp of transfected HEK293 cells, ganglionic α3β4 nACh receptors, 1 mM ACh; type: cell-based
T1 construct: expressed in transfected cells; host or cells: HEK293 (ATCC CRL1573), transient transfection
Description: Human embryonic kidney 293 (HEK293) fibroblasts (ATCC CRL1573) were cultured in minimal essential medium supplemented with 10% fetal bovine serum and 2 mM glutamine (Life Technologies, Rockville, Md.). Cells were plated on poly-D-lysine-coated 35 mm nunc dishes, transfected by the LipofectaminePLUS method (Life Technologies), and examined functionally between 18-48 h post transfection. The following receptor subunit cDNAs were used: nAChR-α3 (nicotinic acetylcholine receptor-α3; accession no. L31621), nAChR-α4 (accession no. L31620), nAChR-β2 (accession no. L31622), nAChR-β4 (accession no. U42976), 5-HT3R-A (5-HT3A receptor; accession no. M74425), NR1 (N-methyl-D-aspartate receptor 1; accession no. X63255), NR2A (accession no. X91561), and NR2B (accession no. M91562). The nAchR and NR clones were rat; the 5-HT3R-A clone was mouse. Co-transfection of enhanced green fluorescent protein (“EGFP”) (10% of total cDNA) provided a marker to identify transfected cells. Transfected cells were selected for EGFP expression and examined by voltage-clamp recording in the whole-cell configuration using an Axopatch 200B patch-clamp amplifier (Axon Instruments, Foster City, Calif.). Thin-walled borosilicate glass microelectrodes (TW150F, World Precision Instruments, Sarasota, Fla.) had resistances of 3-5 MΩ when filled with an internal solution containing (in mM): 135 CsCl, 10 CsF, 10 HEPES (N-[2-hydroxyethyl]piperazine-N′-[2-ethanesulfonic acid]), 5 EGTA (ethylene glycol-bis[β-aminoethyl ether]-N,N,N′,N′-tetraacetic acid), 1 MgCl2, 0.5 CaCl2, pH 7.2. Whole-cell capacitance and series resistance were recorded and adequately compensated using the available circuitry of the amplifier. Current responses were filtered at 1 kHz with an 8-pole Bessel filter (Cygnus Technologies, Delaware Water Gap, Pa.), digitized at 3 kHz, and stored on a Macintosh PowerPC-G3 computer using an ITC-16 interface (Instrutech, Great Neck, N.Y.) under control of the data acquisition and analysis program Synapse (Synergy Research, Gaithersburg, Md.). […] Rapid switching between inputs was achieved using a set of upstream solenoid valves (Lee Co., Westbrook, Conn.) under computer control; the solution exchange rate was ˜5 ms as measured from liquid junction currents.
Transfected HEK293 cells expressing various receptor subunit cDNAs were examined by whole-cell patch-clamp recording with fast perfusion of agonist and drug solutions. […] In FIG. 1A, open bars depict the timing of ACh application; filled bars depict the timing of co-application of 20 μM IBO or 20 μM 18MC; and inhibition was measured relative to control at the end of the drug application (indicated by arrows). […]

α3β4 nACh receptors [2] = molecular target: T2, α3β4 nACh receptors (Rattus norvegicus, UniProt P09483+P12390); assay: whole-cell patch-clamp of transfected HEK293 cells, neuronal nACh receptors, 300 μM ACh; type: cell-based
T2 construct: expressed in transfected cells; host or cells: HEK293 (ATCC CRL1573), transient transfection
Description: (§1) Human embryonic kidney 293 (HEK293) fibroblasts (ATCC CRL1573) were cultured in minimal essential medium supplemented with 10% fetal bovine serum and 2 mM glutamine (Life Technologies, Rockville, Md.). Cells were plated on poly-D-lysine-coated 35 mm nunc dishes, transfected by the LipofectaminePLUS method (Life Technologies), and examined functionally between 18-48 h post transfection. The following receptor subunit cDNAs were used: nAChR-α3 (nicotinic acetylcholine receptor-α3; accession no. L31621), nAChR-α4 (accession no. L31620), nAChR-β2 (accession no. L31622), nAChR-β4 (accession no. U42976), 5-HT3R-A (5-HT3A receptor; accession no. M74425), NR1 (N-methyl-D-aspartate receptor 1; accession no. X63255), NR2A (accession no. X91561), and NR2B (accession no. M91562). The nAchR and NR clones were rat; the 5-HT3R-A clone was mouse. Co-transfection of enhanced green fluorescent protein (“EGFP”) (10% of total cDNA) provided a marker to identify transfected cells. Transfected cells were selected for EGFP expression and examined by voltage-clamp recording in the whole-cell configuration using an Axopatch 200B patch-clamp amplifier (Axon Instruments, Foster City, Calif.). Thin-walled borosilicate glass microelectrodes (TW150F, World Precision Instruments, Sarasota, Fla.) had resistances of 3-5 MΩ when filled with an internal solution containing (in mM): 135 CsCl, 10 CsF, 10 HEPES (N-[2-hydroxyethyl]piperazine-N′-[2-ethanesulfonic acid]), 5 EGTA (ethylene glycol-bis[β-aminoethyl ether]-N,N,N′,N′-tetraacetic acid), 1 MgCl2, 0.5 CaCl2, pH 7.2. Whole-cell capacitance and series resistance were recorded and adequately compensated using the available circuitry of the amplifier. Current responses were filtered at 1 kHz with an 8-pole Bessel filter (Cygnus Technologies, Delaware Water Gap, Pa.), digitized at 3 kHz, and stored on a Macintosh PowerPC-G3 computer using an ITC-16 interface (Instrutech, Great Neck, N.Y.) under control of the data acquisition and analysis program Synapse (Synergy Research, Gaithersburg, Md.). Cells were continuously superfused with extracellular solution containing (in mM): 150 NaCl, 3 KCl, 5 HEPES, 1 MgCl2, 1.8 CaCl2, 10 glucose, and 0.1 mg/ml phenol red, pH 7.3 (MgCl2 was omitted from all solutions used for the study of NMDA receptors). […] Control, agonist, and drug solutions were applied to individual cells by rapid perfusion. Solutions were driven by a syringe pump through a flowpipe having 4 inputs that converge at a single common output of approximately 100 μm diameter. Rapid switching between inputs was achieved using a set of upstream solenoid valves (Lee Co., Westbrook, Conn.) under computer control; the solution exchange rate was ˜5 ms as measured from liquid junction currents.
Transfected HEK293 cells expressing various receptor subunit cDNAs were examined by whole-cell patch-clamp recording with fast perfusion of agonist and drug solutions. […] Transfected HEK293 cells expressing α3β4 nACh receptors were voltage-clamped to −70 mV and stimulated with 1 mM ACh at 30 s intervals. […] In FIG. 1A, open bars depict the timing of ACh application; filled bars depict the timing of co-application of 20 μM IBO or 20 μM 18MC; and inhibition was measured relative to control at the end of the drug application (indicated by arrows). […] The data presented in FIG. 1B are mean±SEM for 3-14 cells per point, and curve fits are given for the logistic equation: I=Imax/(1+([drug]/IC50)). […] In this case, transfected HEK293 cells expressing α3β4 nACh receptors were voltage-clamped to −70 mV and stimulated with 300 μM ACh at 30 s intervals.

NR1/2A receptors = molecular target: T3, NR1/2A receptors (Rattus norvegicus, UniProt P35439+Q00959); assay: whole-cell patch-clamp of transfected HEK293 cells, NR1/2A, 100 μM glutamate plus 10 μM glycine; type: cell-based
T3 construct: expressed in transfected cells; host or cells: HEK293 (ATCC CRL1573), transient transfection
Description: as §1
(§2) To study these, transfected HEK293 cells expressing NR1/2A or NR1/2B receptors were voltage-clamped to −70 mV and stimulated with 100 μM glutamate plus 10 μM glycine at 30 s intervals. […] In FIGS. 3A and 3B, open bars depict the timing of agonist application, filled bars depict the timing of co-application of 20 μM IBO or 20 μM 18MC, and inhibition was measured relative to control at the end of the drug application (indicated by arrows).

NR1/2B receptors = molecular target: T4, NR1/2B receptors (Rattus norvegicus, UniProt P35439+Q00960); assay: whole-cell patch-clamp of transfected HEK293 cells, NR1/2B, 100 μM glutamate plus 10 μM glycine; type: cell-based
T4 construct: expressed in transfected cells; host or cells: HEK293 (ATCC CRL1573), transient transfection
Description: as §1, §2

5-HT3A receptors = molecular target: T5, 5-HT3A receptors (Mus musculus, UniProt P23979); assay: whole-cell patch-clamp of transfected HEK293 cells, 5-HT3A, 100 μM serotonin; type: cell-based
T5 construct: expressed in transfected cells; host or cells: HEK293 (ATCC CRL1573), transient transfection
T5 sequence (P23979 24-489): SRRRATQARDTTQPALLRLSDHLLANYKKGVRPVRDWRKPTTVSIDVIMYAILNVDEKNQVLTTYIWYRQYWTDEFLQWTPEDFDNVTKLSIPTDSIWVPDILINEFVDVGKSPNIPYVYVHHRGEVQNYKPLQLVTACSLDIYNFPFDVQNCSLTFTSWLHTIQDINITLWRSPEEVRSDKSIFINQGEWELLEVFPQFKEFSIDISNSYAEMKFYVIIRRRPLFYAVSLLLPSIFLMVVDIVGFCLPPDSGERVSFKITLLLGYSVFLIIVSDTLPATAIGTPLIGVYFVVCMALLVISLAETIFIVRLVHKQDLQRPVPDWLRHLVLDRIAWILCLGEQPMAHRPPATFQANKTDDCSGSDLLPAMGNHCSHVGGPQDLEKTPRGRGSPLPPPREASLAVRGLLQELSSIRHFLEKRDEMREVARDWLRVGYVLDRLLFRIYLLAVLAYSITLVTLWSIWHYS
Description: as §1
as §2, with “Transfected” for “To study these, transfected”, “5-HT3A” for “NR1/2A or NR1/2B”, “serotonin” for “glutamate plus 10 μM glycine”, “This is shown in FIG. 4, where” for “In FIGS. 3A and 3B,”

[3] = molecular target: NMDA-type glutamate receptors; details: literature (Popik, Chen); read-out: IC50 obtained in hippocampal neurons; cited from earlier work

T3 sequence (Q00959 20-1464 limits assumed, other chains not shown): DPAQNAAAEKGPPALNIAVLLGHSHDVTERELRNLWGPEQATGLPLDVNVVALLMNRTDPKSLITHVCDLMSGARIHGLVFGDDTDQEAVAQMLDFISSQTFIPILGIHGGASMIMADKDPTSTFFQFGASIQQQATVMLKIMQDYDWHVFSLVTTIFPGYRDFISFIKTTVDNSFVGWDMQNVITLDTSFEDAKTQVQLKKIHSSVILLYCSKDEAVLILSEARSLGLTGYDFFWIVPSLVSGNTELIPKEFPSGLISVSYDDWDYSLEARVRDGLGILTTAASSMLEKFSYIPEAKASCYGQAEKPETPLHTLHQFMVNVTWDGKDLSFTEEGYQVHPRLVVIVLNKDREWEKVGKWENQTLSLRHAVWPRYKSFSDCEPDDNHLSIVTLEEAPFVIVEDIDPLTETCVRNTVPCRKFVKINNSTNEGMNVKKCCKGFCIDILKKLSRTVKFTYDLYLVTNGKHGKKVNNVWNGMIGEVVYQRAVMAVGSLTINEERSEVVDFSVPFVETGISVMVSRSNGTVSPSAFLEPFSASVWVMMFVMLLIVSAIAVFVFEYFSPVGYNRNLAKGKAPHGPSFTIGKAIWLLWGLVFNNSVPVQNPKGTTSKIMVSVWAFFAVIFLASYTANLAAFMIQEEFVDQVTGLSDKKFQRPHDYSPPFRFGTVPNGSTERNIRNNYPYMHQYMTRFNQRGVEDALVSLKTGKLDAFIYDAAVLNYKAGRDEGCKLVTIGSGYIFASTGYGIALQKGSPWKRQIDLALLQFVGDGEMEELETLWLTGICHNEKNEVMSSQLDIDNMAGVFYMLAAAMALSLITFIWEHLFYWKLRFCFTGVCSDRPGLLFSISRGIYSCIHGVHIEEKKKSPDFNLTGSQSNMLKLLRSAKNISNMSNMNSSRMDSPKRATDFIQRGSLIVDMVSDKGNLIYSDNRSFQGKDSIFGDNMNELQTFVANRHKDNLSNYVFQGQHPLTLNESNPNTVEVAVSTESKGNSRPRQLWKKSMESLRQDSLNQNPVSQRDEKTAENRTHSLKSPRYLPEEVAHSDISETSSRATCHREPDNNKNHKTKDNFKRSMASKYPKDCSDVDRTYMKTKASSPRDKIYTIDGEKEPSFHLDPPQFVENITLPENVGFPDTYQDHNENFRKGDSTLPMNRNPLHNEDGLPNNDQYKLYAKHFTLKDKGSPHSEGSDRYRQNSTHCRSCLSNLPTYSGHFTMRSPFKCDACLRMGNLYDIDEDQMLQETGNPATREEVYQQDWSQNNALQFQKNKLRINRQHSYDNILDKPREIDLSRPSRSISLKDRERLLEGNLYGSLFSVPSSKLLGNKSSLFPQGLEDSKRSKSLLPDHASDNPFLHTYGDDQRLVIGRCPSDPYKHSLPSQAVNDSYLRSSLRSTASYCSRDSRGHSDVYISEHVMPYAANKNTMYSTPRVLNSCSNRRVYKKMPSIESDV
T4 sequence (Q00960 27-1482, other chains not shown): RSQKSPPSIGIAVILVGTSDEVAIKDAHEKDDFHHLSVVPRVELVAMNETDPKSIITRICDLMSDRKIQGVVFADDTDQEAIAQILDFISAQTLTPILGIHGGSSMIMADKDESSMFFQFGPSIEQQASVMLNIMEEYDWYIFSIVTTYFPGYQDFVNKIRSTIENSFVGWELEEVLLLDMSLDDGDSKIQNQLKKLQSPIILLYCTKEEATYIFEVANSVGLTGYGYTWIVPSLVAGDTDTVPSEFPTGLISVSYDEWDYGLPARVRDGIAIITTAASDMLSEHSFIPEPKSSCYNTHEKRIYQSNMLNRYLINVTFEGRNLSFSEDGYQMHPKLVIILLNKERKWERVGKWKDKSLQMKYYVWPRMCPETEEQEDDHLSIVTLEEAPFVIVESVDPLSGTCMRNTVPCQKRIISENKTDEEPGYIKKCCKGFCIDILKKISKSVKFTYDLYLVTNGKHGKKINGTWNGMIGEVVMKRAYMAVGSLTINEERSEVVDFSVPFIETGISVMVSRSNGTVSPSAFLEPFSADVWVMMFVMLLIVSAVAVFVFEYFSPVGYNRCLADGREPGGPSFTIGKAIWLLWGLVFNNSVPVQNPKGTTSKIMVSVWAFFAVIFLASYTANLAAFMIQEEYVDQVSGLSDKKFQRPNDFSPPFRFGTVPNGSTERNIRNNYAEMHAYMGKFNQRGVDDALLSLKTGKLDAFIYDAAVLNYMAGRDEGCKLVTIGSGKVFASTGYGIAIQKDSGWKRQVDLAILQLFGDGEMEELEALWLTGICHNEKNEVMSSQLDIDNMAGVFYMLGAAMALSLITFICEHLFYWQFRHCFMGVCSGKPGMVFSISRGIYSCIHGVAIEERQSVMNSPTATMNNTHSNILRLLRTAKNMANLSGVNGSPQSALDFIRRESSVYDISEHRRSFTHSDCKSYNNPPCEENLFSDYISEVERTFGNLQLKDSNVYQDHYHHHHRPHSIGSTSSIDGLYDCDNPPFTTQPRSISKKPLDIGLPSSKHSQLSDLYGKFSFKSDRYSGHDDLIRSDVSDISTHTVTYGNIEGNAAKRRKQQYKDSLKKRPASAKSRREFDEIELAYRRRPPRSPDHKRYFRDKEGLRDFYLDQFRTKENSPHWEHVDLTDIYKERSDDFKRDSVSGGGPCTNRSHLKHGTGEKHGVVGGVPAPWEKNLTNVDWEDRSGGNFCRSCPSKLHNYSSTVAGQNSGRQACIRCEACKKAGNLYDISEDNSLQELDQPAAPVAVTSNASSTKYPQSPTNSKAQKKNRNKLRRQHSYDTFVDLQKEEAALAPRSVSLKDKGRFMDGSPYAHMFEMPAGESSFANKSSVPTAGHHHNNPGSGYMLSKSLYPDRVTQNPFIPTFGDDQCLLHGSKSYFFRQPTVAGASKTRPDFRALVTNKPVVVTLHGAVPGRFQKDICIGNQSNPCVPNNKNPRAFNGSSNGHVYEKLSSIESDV
T2 sequence (P09483 31-630): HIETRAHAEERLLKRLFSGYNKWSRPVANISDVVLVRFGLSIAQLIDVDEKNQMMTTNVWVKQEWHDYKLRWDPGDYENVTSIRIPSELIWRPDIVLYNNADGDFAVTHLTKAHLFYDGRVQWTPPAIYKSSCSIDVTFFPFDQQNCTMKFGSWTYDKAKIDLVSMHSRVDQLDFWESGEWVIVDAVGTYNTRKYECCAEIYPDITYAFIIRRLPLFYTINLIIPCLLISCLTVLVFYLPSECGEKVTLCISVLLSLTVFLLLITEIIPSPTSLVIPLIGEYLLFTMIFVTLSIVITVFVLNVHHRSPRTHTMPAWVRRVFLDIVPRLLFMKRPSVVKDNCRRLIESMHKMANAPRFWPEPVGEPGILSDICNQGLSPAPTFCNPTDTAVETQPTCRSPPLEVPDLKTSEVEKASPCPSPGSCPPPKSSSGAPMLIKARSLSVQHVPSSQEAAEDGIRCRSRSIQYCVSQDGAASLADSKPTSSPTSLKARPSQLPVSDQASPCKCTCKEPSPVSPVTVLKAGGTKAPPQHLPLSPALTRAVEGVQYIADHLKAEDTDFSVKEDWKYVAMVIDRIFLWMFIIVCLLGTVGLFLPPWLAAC
T2 sequence (P12390 25-500): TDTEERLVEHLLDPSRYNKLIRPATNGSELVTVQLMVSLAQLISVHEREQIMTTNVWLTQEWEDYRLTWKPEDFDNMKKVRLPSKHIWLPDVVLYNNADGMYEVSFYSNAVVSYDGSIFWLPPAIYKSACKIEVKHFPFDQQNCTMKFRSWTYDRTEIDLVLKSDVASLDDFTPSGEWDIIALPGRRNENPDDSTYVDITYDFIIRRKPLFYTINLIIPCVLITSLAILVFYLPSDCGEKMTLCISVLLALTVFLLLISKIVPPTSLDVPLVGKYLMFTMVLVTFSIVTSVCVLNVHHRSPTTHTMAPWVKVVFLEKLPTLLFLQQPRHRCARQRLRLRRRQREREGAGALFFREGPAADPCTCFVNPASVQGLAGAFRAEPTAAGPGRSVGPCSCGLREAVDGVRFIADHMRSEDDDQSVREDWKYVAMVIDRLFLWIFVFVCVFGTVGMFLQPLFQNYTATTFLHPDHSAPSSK
T1 sequence (P04757 26-499): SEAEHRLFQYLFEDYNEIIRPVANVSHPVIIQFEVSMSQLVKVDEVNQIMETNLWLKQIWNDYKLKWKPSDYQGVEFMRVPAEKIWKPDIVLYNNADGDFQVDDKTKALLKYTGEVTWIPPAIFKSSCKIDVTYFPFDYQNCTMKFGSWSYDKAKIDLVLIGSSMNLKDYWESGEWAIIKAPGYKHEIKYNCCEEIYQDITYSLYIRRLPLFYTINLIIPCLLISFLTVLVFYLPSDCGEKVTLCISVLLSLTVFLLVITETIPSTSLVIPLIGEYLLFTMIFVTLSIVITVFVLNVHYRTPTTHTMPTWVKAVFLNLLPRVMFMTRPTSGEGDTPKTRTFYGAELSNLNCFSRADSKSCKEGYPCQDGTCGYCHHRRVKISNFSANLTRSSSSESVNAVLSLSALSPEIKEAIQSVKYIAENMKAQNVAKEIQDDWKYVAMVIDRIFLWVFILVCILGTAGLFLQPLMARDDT
T1 sequence (P12392 21-495): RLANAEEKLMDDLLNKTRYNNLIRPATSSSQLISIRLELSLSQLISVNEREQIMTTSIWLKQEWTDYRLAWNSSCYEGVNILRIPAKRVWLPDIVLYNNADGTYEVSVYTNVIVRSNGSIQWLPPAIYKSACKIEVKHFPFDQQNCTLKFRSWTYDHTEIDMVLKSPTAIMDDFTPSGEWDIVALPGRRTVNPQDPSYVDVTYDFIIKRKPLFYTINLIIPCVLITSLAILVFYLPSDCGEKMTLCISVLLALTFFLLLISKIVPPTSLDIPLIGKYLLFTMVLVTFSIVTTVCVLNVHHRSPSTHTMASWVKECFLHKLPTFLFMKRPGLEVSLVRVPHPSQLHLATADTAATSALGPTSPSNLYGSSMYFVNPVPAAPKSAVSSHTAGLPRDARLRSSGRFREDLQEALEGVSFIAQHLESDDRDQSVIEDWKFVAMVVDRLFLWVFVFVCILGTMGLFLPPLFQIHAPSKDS

**Q.** For ibogaine, which “response to drug applied alone (agonist activity)” value (“response to drug applied alone” for short) (α3β4 nACh receptors [1]; 20 μM drug alone, -70 mV) is on record?
**A.** The value was “did not produce any response”.

**Q.** What about the “inhibition of ACh-evoked responses on co-application” value (α3β4 nACh receptors [1]; 20 μM drug with 1 mM ACh, N=15, FIG. 1A) of the same substance?
**A.** The value was “nearly abolished”.

**Q.** And the “inhibition of ACh-evoked response” value (α3β4 nACh receptors [2]; 5 μM drug with 300 μM ACh)?
**A.** Its value is 61±4%.

**Q.** What about the “response to drug applied alone” value (α3β4 nACh receptors [2]; 20 μM drug alone, -70 mV) of the same substance?
**A.** Its value is “did not produce any response”.

**Q.** And the “inhibition of ACh-evoked response” value (α3β4 nACh receptors [2]; 20 μM drug with 300 μM ACh, FIG. 2)?
**A.** The value was 93±3%.

**Q.** And the “inhibition of agonist-evoked response” value (NR1/2A receptors; 10 μM drug, co-application)?
**A.** The value was 51±9%.

**Q.** And the “response to drug applied alone” value (NR1/2A receptors; 20 μM drug alone)?
**A.** Its value is “did not produce any response”.

**Q.** What about the “reduction of agonist-evoked response” value (NR1/2A receptors; 20 μM drug, co-application) of the same substance?
**A.** The value was 98±3%.

**Q.** And the “inhibition of agonist-evoked response” value (NR1/2B receptors; 10 μM drug, co-application)?
**A.** Its value is 82±3%.

**Q.** What about the “response to drug applied alone” value (NR1/2B receptors; 20 μM drug alone) of the same substance?
**A.** The value was “did not produce any response”.

**Q.** And the “reduction of agonist-evoked response” value (NR1/2B receptors; 20 μM drug, co-application)?
**A.** Its value is 95±2%.

**Q.** What about the “response to drug applied alone” value (5-HT3A receptors; 20 μM drug alone) of the same substance?
**A.** Its value is “did not produce any response”.

**Q.** And the “inhibition of serotonin-evoked responses” value (5-HT3A receptors; 20 μM drug with 100 μM serotonin, FIG. 4)?
**A.** Its value is 53±3%.

**Q.** And the IC50 [3]?
**A.** The IC50 was 3 to 5 µM.
